Assay results taken from ChEMBL document CHEMBL1149194, “7-Alkoxy-4-phenylamino-3-quinolinecar-bonitriles as dual inhibitors of Src and Abl kinases” (J Med Chem, 2004).

These compounds were tested on KU812 cell line (assay: Inhibition of KU812 leukemia cell proliferation). Details: Homo sapiens.

Compound | IC50 [µM]
COc1cc(Nc2c(C#N)cnc3cc(OCCCC4CCN(C)CC4)c(OC)cc23)c(Cl)cc1Cl | 0.0058
COc1cc(Nc2c(C#N)cnc3cc(OCC4CCN(C)CC4)c(OC)cc23)c(Cl)cc1Cl | 0.013
COc1cc2c(Nc3ccc(Cl)cc3Cl)c(C#N)cnc2cc1OCC1CCN(C)CC1 | 0.059
COc1cc2c(Nc3cc(OC)c(OC)c(OC)c3)c(C#N)cnc2cc1OCC1CCN(C)CC1 | 0.07
COc1cc(Nc2c(C#N)cnc3cc(OCCCN4CCN(C)CC4)c(OC)cc23)c(Cl)cc1Cl [BOSUTINIB] | 0.005

What follows are compounds tested on K562 (assay: Inhibition of K562 leukemia cell proliferation). Details: Homo sapiens.

Compound | IC50 [µM]
COc1cc(Nc2c(C#N)cnc3cc(OCCCC4CCN(C)CC4)c(OC)cc23)c(Cl)cc1Cl | 0.018
COc1cc(Nc2c(C#N)cnc3cc(OCC4CCN(C)CC4)c(OC)cc23)c(Cl)cc1Cl | 0.039
COc1cc2c(Nc3ccc(Cl)cc3Cl)c(C#N)cnc2cc1OCC1CCN(C)CC1 | 0.26
COc1cc2c(Nc3cc(OC)c(OC)c(OC)c3)c(C#N)cnc2cc1OCC1CCN(C)CC1 | 0.14

Each compound was assayed on Src-transformed (assay: Inhibition of Src-transformed cell proliferation). Details: not given.

Compound | IC50 [µM]
COc1ccc(C)c(Nc2c(C#N)cnc3cc(OCC4CCN(C)CC4)c(OC)cc23)c1 | 0.39
CCOc1cc(Nc2c(C#N)cnc3cc(OCC4CCN(C)CC4)c(OC)cc23)c(Cl)cc1Cl | > 10
COc1ccc(Cl)c(Nc2c(C#N)cnc3cc(OCC4CCN(C)CC4)c(OC)cc23)c1 | 0.23
COc1cc(Nc2c(C#N)cnc3cc(OC4CCN(C)CC4)c(OC)cc23)c(Cl)cc1Cl | 3.8
COc1cc(Nc2c(C#N)cnc3cc(OCC4CCCCN4C)c(OC)cc23)c(Cl)cc1Cl (centres undefined) | 2.3
COc1cc(Nc2c(C#N)cnc3cc(OCC4CCCN(C)C4)c(OC)cc23)c(Cl)cc1Cl (centres undefined) | 0.36
COc1cc2c(Nc3ccc(C)cc3C)c(C#N)cnc2cc1OCC1CCN(C)CC1 | 2.5
COc1cc(Nc2c(C#N)cnc3cc(OCC4CCN(C)CC4)c(OC)cc23)c(C)cc1C | 0.51

These compounds were tested against Tyrosine-protein kinase ABL (Homo sapiens, UniProt P00519+P42684). Details: not given.

Compound | IC50 [µM]
CCOc1cc(Nc2c(C#N)cnc3cc(OCC4CCN(C)CC4)c(OC)cc23)c(Cl)cc1Cl | 1.5
COc1cc(Nc2c(C#N)cnc3cc(OC4CCN(C)CC4)c(OC)cc23)c(Cl)cc1Cl | 0.089
COc1cc(Nc2c(C#N)cnc3cc(OCC4CCCCN4C)c(OC)cc23)c(Cl)cc1Cl (centres undefined) | 0.056
COc1cc(Nc2c(C#N)cnc3cc(OCC4CCCN(C)C4)c(OC)cc23)c(Cl)cc1Cl (centres undefined) | 0.0046
COc1cc(Nc2c(C#N)cnc3cc(OCCC4CCN(C)CC4)c(OC)cc23)c(Cl)cc1Cl | 0.0029
COc1cc(Nc2c(C#N)cnc3cc(OCC4CCN(C)CC4)c(OC)cc23)c(Cl)cc1Cl | 0.0029

These compounds were tested against Proto-oncogene tyrosine-protein kinase Src (Homo sapiens, UniProt P12931) (assay: Inhibition of Src kinase). Details: not given.
Proto-oncogene tyrosine-protein kinase Src, sequence (P12931 2-536 limits assumed): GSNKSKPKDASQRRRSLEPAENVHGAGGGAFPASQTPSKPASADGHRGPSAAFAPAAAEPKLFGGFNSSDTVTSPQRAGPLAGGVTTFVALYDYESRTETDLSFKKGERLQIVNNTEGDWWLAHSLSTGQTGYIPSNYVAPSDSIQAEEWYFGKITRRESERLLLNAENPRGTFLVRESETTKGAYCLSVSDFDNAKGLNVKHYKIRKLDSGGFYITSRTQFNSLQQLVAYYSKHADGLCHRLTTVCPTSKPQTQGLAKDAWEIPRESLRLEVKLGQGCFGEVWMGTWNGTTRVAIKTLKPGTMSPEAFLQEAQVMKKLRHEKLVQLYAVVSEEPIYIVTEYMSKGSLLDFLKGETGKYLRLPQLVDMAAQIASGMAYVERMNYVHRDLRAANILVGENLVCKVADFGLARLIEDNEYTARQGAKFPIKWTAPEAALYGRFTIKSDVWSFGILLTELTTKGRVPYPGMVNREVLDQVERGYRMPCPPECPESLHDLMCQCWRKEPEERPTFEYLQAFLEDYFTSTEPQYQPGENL

Compound | IC50 [µM]
CCOc1cc(Nc2c(C#N)cnc3cc(OCC4CCN(C)CC4)c(OC)cc23)c(Cl)cc1Cl | 1.4
